From patent US12083124B2 (Incyte Corporation, priority 2019, dated 2024) come the findings set out here.

pIC50: −log10 of the molar value. Where two headings read alike, the source gives them in different places.

Test [1] addresses wild-type un-phosphorylated FGFR3 (Homo sapiens, UniProt P22607). Put plainly: FGFR Enzymatic Assay (FRET peptide phosphorylation), FGFR3.
For test [2], the target named is wild-type un-phosphorylated FGFR1 (Homo sapiens, UniProt P11362). As to the kind of experiment: FGFR Enzymatic Assay (FRET peptide phosphorylation), FGFR1. To be noted: pre-incubated for 4 hours.
Test [3] concerns the target wild-type un-phosphorylated FGFR2 (Homo sapiens, UniProt P21802). As to the kind of experiment: FGFR Enzymatic Assay (FRET peptide phosphorylation), FGFR2.
Where [4] appears, read: FGFR1, wild-type un-phosphorylated FGFR1.
Where [5] appears, read: read-out: FGFR3, wild-type un-phosphorylated FGFR3, pre-incubated for 4 hours.
The mark [6] stands for this setting: read-out: FGFR2, wild-type un-phosphorylated FGFR2, pre-incubated for 4 hours.
Where [7] appears, read: read-out: FGFR1, wild-type un-phosphorylated FGFR1.

wild-type un-phosphorylated FGFR3, sequence (P22607 23-806): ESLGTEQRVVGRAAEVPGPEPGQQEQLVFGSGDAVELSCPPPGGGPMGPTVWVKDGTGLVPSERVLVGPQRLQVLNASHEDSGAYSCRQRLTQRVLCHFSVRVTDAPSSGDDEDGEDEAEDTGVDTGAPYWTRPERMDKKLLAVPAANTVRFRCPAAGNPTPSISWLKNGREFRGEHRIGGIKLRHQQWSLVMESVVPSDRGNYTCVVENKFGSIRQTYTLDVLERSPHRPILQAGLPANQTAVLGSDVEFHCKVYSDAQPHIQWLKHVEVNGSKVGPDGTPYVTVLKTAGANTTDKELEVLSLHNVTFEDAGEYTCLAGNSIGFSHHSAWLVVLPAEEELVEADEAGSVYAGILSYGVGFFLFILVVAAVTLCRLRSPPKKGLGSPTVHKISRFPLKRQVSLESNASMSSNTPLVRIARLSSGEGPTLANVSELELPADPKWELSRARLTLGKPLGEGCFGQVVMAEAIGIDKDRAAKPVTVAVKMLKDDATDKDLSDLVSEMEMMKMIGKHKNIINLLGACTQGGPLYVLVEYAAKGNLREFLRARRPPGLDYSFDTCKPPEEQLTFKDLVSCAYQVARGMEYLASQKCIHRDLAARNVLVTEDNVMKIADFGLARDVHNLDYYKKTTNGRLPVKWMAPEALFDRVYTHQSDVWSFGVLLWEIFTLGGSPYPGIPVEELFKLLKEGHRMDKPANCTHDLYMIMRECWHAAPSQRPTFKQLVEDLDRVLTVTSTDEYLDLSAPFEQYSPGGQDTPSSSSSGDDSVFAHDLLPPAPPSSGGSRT
wild-type un-phosphorylated FGFR2, sequence (P21802 22-821): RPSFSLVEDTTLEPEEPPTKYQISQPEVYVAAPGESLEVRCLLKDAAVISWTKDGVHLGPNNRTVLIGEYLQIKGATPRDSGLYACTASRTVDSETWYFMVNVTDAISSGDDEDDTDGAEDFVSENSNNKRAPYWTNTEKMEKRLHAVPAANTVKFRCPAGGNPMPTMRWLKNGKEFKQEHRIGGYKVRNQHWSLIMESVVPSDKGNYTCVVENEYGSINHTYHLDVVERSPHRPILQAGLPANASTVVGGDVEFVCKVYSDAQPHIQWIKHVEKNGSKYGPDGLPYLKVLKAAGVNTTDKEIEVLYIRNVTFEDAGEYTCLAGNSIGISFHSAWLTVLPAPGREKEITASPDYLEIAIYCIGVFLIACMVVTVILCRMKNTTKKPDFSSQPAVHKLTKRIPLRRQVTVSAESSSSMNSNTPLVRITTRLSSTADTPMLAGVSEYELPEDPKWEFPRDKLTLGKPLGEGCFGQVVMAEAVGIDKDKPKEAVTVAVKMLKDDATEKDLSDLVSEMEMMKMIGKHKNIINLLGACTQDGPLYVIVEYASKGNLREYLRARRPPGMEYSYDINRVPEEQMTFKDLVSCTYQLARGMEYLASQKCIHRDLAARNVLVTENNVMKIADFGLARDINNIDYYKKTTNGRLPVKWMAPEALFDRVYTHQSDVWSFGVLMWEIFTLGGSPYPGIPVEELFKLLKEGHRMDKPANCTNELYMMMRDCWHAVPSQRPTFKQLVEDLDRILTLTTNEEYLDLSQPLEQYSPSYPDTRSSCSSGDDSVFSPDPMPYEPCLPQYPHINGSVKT
wild-type un-phosphorylated FGFR1, sequence (P11362 22-822): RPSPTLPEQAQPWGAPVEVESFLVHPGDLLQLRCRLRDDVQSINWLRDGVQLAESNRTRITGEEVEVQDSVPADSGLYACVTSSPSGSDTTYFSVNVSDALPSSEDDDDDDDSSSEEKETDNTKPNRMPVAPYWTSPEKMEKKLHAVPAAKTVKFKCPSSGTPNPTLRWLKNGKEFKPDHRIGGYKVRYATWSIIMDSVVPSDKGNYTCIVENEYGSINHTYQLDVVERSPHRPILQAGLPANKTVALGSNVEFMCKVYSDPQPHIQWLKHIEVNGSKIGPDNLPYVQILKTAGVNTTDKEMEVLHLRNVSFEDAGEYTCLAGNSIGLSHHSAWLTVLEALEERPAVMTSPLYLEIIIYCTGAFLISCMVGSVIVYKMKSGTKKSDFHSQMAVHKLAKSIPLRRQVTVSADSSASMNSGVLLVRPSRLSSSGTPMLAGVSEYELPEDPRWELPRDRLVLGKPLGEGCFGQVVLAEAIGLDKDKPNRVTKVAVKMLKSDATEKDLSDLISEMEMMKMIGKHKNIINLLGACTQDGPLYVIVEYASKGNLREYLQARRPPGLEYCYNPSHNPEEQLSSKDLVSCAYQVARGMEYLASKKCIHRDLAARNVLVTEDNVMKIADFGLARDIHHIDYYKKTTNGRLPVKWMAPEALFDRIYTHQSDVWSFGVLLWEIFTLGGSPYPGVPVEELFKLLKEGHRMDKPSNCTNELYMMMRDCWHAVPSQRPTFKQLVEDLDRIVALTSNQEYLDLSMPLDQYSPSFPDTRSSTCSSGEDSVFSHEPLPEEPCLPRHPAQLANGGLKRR

In the case of `CCN1CCC(n2cc(-c3n[nH]c4cc(OC)c(-c5cccc6c5CCC6)nc34)cn2)C1` (stereo not drawn) [Example 15, 5-(2,3-Dihydro-1H-inden-4-yl)-3-(1-(1-ethylpyrrolidin-3-yl)-1H-pyrazol-4-yl)-6-methoxy-1H-pyrazolo[4,3-b]pyridine], the pIC50 was over 8.22 in test [1] and 7.00 to 7.40 in test [2] (setting [4]).
Take `COc1cc2[nH]nc(-c3ccc(C4CC(=O)N(C)C4)nc3)c2nc1-c1cccc2c1CCC2C#N` (single isomer, unassigned) [Example 76, 4-(6-Methoxy-3-(6-(1-methyl-5-oxopyrrolidin-3-yl)pyridin-3-yl)-1H-pyrazolo[4,3-b]pyridin-5-yl)-2,3-dihydro-1H-indene-1-carbonitrile]: the pIC50 in test [1] (setting [5]) was over 8.22; in test [3] (setting [6]), over 8.22; in test [2] (setting [7]), 7.40 to 8.22.
For the compound `COc1cc2[nH]nc(-c3ccc(N4CCN(CCO)CC4)nc3)c2nc1-c1cccc(CC#N)c1C` [Example 89, 2-(3-(3-(6-(4-(2-Hydroxyethyl)piperazin-1-yl)pyridin-3-yl)-6-methoxy-1H-pyrazolo[4,3-b]pyridin-5-yl)-2-methylphenyl)acetonitrile], the values for the pIC50 in test [1], in test [3] and in test [2] (setting [4]) were over 8.22, over 8.22 and under 7.00, respectively.
For `COc1cc2[nH]nc(-c3ccc(C4(C#N)CCN(C(=O)[C@H]5COCCN5C)C4)nc3)c2nc1-c1cccc2c1CCC2` (stereo partly drawn) [Example 195, 3-(5-(5-(2,3-Dihydro-1H-inden-4-yl)-6-methoxy-1H-pyrazolo[4,3-b]pyridin-3-yl)pyridin-2-yl)-1-((R)-4-methylmorpholine-3-carbonyl)pyrrolidine-3-carbonitrile], the pIC50 in test [1] is over 8.22; in test [3] it was over 8.22; in test [2] (setting [7]), 7.40 to 8.22.
As for `COc1cc2[nH]nc(-c3ccc(N4CCC(C(=O)N(C)C)CC4)nc3)c2nc1-c1cccc(C)c1C` [Example 50, 1-(5-(5-(2,3-Dimethylphenyl)-6-methoxy-1H-pyrazolo[4,3-b]pyridin-3-yl)pyridin-2-yl)-N,N-dimethylpiperidine-4-carboxamide], the pIC50 in test [1] is over 8.22; in test [3] it was over 8.22; in test [2] (setting [4]) it was under 7.00.
With `COc1cc2[nH]nc(-c3ccc(N4CCN5C[C@H](O)C[C@H]5C4)nc3)c2nc1-c1cccc(C)c1F` [Example 94, (7R,8aS)-2-(5-(5-(2-Fluoro-3-methylphenyl)-6-methoxy-1H-pyrazolo[4,3-b]pyridin-3-yl)pyridin-2-yl)octahydropyrrolo[1,2-a]pyrazin-7-ol], the pIC50 in test [1] is over 8.22; in test [3] (setting [6]) it was 7.40 to 8.22; in test [2] (setting [4]) it was under 7.00.
For `COc1cc2[nH]nc(-c3cnn(C)c3)c2nc1-c1cccc2c1CCC2O` (single isomer, unassigned) [Example 7, 4-(6-Methoxy-3-(1-methyl-1H-pyrazol-4-yl)-1H-pyrazolo[4,3-b]pyridin-5-yl)-2,3-dihydro-1H-inden-1-ol], the pIC50 in test [1] was over 8.22; in test [2] (setting [4]) it was 7.00 to 7.40.
For `CCOc1cc2[nH]nc(-c3cnn(C)c3)c2nc1-c1cccc2c1CCC2` [Example 26, 5-(2,3-Dihydro-1H-inden-4-yl)-6-ethoxy-3-(1-methyl-1H-pyrazol-4-yl)-1H-pyrazolo[4,3-b]pyridine] the same measures were over 8.22 and under 7.00.
On to `COc1cc2[nH]nc(-c3ccc(N4CCN(C(C)=O)CC4)nc3)c2nc1-c1cccc(CC#N)c1C` [Example 55, 2-(3-(3-(6-(4-Acetylpiperazin-1-yl)pyridin-3-yl)-6-methoxy-1H-pyrazolo[4,3-b]pyridin-5-yl)-2-methylphenyl)acetonitrile], for which the pIC50 in test [1] was over 8.22; in test [2] (setting [4]), under 7.00.
As to `COc1cc2[nH]nc(-c3cnn(C4CC4)c3)c2nc1-c1cccc(C)c1C` [Example 67, 3-(1-Cyclopropyl-1H-pyrazol-4-yl)-5-(2,3-dimethylphenyl)-6-methoxy-1H-pyrazolo[4,3-b]pyridine], the values for the pIC50 in test [1] and in test [2] (setting [4]) were over 8.22 and under 7.00, respectively.
With `COc1cc2[nH]nc(-c3ccc(N4CCN(C(C)=O)CC4)nc3)c2nc1-c1cccc2c1CCC2` [Example 64, 1-(4-(5-(5-(2,3-Dihydro-1H-inden-4-yl)-6-methoxy-1H-pyrazolo[4,3-b]pyridin-3-yl)pyridin-2-yl)piperazin-1-yl)ethan-1-one], the figures for the pIC50 in test [1] and in test [2] (setting [7]) were over 8.22 and 7.40 to 8.22, respectively.
As to `COc1cc2[nH]nc(-c3cnn(C4CCNC4)c3)c2nc1-c1cccc2c1CCC2` (stereo not drawn) [Example 14, 5-(2,3-Dihydro-1H-inden-4-yl)-6-methoxy-3-(1-(pyrrolidin-3-yl)-1H-pyrazol-4-yl)-1H-pyrazolo[4,3-b]pyridine], the values for the pIC50 in test [1] and in test [2] (setting [4]) were over 8.22 and 7.00 to 7.40, respectively.
With `COc1cc2[nH]nc(-c3cnn(C)c3)c2nc1-c1cccc2c1C[C@H](F)[C@@H]2O` [Example 13, 2-Fluoro-4-(6-methoxy-3-(1-methyl-1H-pyrazol-4-yl)-1H-pyrazolo[4,3-b]pyridin-5-yl)-2,3-dihydro-1H-inden-1-ol], the pIC50 in test [1] is over 8.22; in test [2] (setting [4]), under 7.00.
The matching figures for `COC(=O)N1CCC(n2cc(-c3n[nH]c4cc(OC)c(-c5cccc(C)c5C)nc34)cn2)CC1` [Example 70, Methyl 4-(4-(5-(2,3-dimethylphenyl)-6-methoxy-1H-pyrazolo[4,3-b]pyridin-3-yl)-1H-pyrazol-1-yl)piperidine-1-carboxylate]: over 8.22 and under 7.00.
For the compound `COc1cc2[nH]nc(-c3cnn(-c4ccncc4)c3)c2nc1-c1cccc2c1CCC2` [Example 32, 5-(2,3-Dihydro-1H-inden-4-yl)-6-methoxy-3-(1-(pyridin-4-yl)-1H-pyrazol-4-yl)-1H-pyrazolo[4,3-b]pyridine], the figures for the pIC50 in test [1] and in test [2] (setting [4]) were over 8.22 and under 7.00, respectively.
The matching figures for `COc1cc2[nH]nc(-c3cnn(C)c3)c2nc1-c1cccc2c1CCC2C#N` (stereo not drawn) [Example 9, 4-(6-Methoxy-3-(1-methyl-1H-pyrazol-4-yl)-1H-pyrazolo[4,3-b]pyridin-5-yl)-2,3-dihydro-1H-indene-1-carbonitrile]: over 8.22 and 7.00 to 7.40.
`COc1cc2[nH]nc(-c3ccc(N4CCN(C)[C@H](C)C4)nc3)c2nc1-c1cccc(C)c1C` [Example 47, (R)-5-(2,3-Dimethylphenyl)-3-(6-(3,4-dimethylpiperazin-1-yl)pyridin-3-yl)-6-methoxy-1H-pyrazolo[4,3-b]pyridine]: the pIC50 in test [1] is over 8.22; in test [2] (setting [4]) it was 7.00 to 7.40.
On to `COc1cc2[nH]nc(-c3cnn(C)c3)c2nc1-c1cccc2c1CCC2O` (single isomer, unassigned) [Example 8, 4-(6-Methoxy-3-(1-methyl-1H-pyrazol-4-yl)-1H-pyrazolo[4,3-b]pyridin-5-yl)-2,3-dihydro-1H-inden-1-ol], for which the pIC50 in test [1] (setting [5]) is over 8.22; in test [2] (setting [4]) it was under 7.00.
With `CNc1cc2[nH]nc(-c3cnn(C)c3)c2nc1-c1cccc2c1CCC2` [Example 37, 5-(2,3-Dihydro-1H-inden-4-yl)-N-methyl-3-(1-methyl-1H-pyrazol-4-yl)-1H-pyrazolo[4,3-b]pyridin-6-amine], the pIC50 was over 8.22 in test [1] and under 7.00 in test [2] (setting [4]).
For `COc1cc2[nH]nc(-c3ccc(N4CCN(C)CC4C)nc3)c2nc1-c1cccc2c1CCC2` (stereo not drawn) [Example 54, 5-(2,3-Dihydro-1H-inden-4-yl)-3-(6-(2,4-dimethylpiperazin-1-yl)pyridin-3-yl)-6-methoxy-1H-pyrazolo[4,3-b]pyridine] the same measures were over 8.22 and 7.00 to 7.40.
For `COc1cc2[nH]nc(-c3ccc(N4C[C@@H]5C[C@H]4CN5C)nc3)c2nc1-c1cccc(C)c1C` [Example 49, 5-(2,3-Dimethylphenyl)-6-methoxy-3-(6-((1S,4S)-5-methyl-2,5-diazabicyclo[2.2.1]heptan-2-yl)pyridin-3-yl)-1H-pyrazolo[4,3-b]pyridine], the pIC50 is over 8.22 in test [1] and 7.00 to 7.40 in test [2] (setting [4]).
Turning to `COC(=O)N1CC(n2cc(-c3n[nH]c4cc(OC)c(-c5cccc(C)c5C)nc34)cn2)C1` [Example 71, Methyl 3-(4-(5-(2,3-dimethylphenyl)-6-methoxy-1H-pyrazolo[4,3-b]pyridin-3-yl)-1H-pyrazol-1-yl)azetidine-1-carboxylate], the pIC50 in test [1] was over 8.22; in test [2] (setting [4]), under 7.00.
On to `Cn1cc(-c2n[nH]c3cc(C(F)F)c(-c4cccc5c4CCC5)nc23)cn1` [Example 35, 6-(Difluoromethyl)-5-(2,3-dihydro-1H-inden-4-yl)-3-(1-methyl-1H-pyrazol-4-yl)-1H-pyrazolo[4,3-b]pyridine], for which the pIC50 is over 8.22 in test [1] and 7.00 to 7.40 in test [2] (setting [4]).
Turning to `COc1cc2[nH]nc(-c3ccc(N4CC[C@H](N(C)C(=O)CO)C4)nc3)c2nc1-c1cccc(C)c1C` [Example 88, (S)-N-(1-(5-(5-(2,3-Dimethylphenyl)-6-methoxy-1H-pyrazolo[4,3-b]pyridin-3-yl)pyridin-2-yl)pyrrolidin-3-yl)-2-hydroxy-N-methylacetamide], the values for the pIC50 in test [1] and in test [2] (setting [4]) were over 8.22 and 7.00 to 7.40, respectively.
`COc1cc2[nH]nc(-c3cnn([C@H]4CC[C@@H](NC(C)=O)CC4)c3)c2nc1-c1cccc2c1CCC2` [Example 53, N-((cis)-4-(4-(5-(2,3-Dihydro-1H-inden-4-yl)-6-methoxy-1H-pyrazolo[4,3-b]pyridin-3-yl)-1H-pyrazol-1-yl)cyclohexyl)acetamide]: the pIC50 in test [1] was over 8.22; in test [2] (setting [4]), 7.00 to 7.40.
In the case of `COc1cc2[nH]nc(-c3cnn(C4CCN(C(C)=O)CC4)c3)c2nc1-c1cccc(C)c1C` [Example 69, 1-(4-(4-(5-(2,3-Dimethylphenyl)-6-methoxy-1H-pyrazolo[4,3-b]pyridin-3-yl)-1H-pyrazol-1-yl)piperidin-1-yl)ethan-1-one], the pIC50 in test [1] was over 8.22; in test [2] (setting [4]) it was under 7.00.
